Assay results as given in patent publication US20190167711A1, “METHODS FOR DIAGNOSIS AND TREATMENT OF ACUTE LYMPHOBLASTIC LEUKEMIA” (MOR RESEARCH APPLICATIONS LTD., priority 2014, published 2019).

How the values were obtained:
Nalm-6 cells [1] = test: XTT cell viability assay in Nalm-6 cells; format: cell-based; conditions: NALM-6 cells, transient expression
Description: Cell viability assay was performed using the Cell Proliferation Kit comprising the second-generation tetrazolium dye, XTT. Viable cells with active metabolism convert XTT into an orange colored reduction product, whereas dead cells lose the ability to reduce XTT, thus, color formation serves as a useful and convenient marker of only the viable cells.
The XTT kit was applied to NALM6 transfected cells according to the manufacturer's protocol (Biological Industries, Kibbutz Beit Haemek, Israel). Cells were incubated for 3 hours with the XTT reagent and quantity of reduced XTT (directly proportional to the number of viable cells) was assessed by recording changes in absorbance as measured on a microplate reader at 450-500 nm optical density (OD).
To measure the effect of NAD^+ depletion following FK866 treatment of Nalm-6 cells, apoptosis and viability were measured as described in Materials and Methods. Nalm-6 cells were treated for 48 hours with 1 nM FK866, and then apoptosis was measured using FACS.

ADAM10 = test: Western blot of ADAM10 in transfected NALM-6 cells; format: cell-based; conditions: NALM-6 transient
Excerpt: Protein was extracted from NALM-6 cell line using Qproteome™ lysis buffer (Qiagen, Hilden, Germany). The membrane was then probed with one or more of the following antibodies: anti-disintegrin and metalloproteinase domain-containing protein 10 (ADAM10) (1:1000) (Abcam; Cambridge, UK) (see Example 9); anti-chemokine C-X-C motif 16 (CXCL16) (1:1000); anti-NAMPT (1:1000); and anti-GAPDH (1:5000) (Santa Crus Biotechnology, Santa Crus, Calif., USA) (see Examples 5 and 9). The secondary antibodies were goat anti-mouse and goat anti-rabbit (1:10,000) (Sigma®, Saint Louis, Mo., USA), for each antigen according to the manufacturer's instructions. […]
Intensity of the protein band was measured using an in-house program. […]
Possible miR-451 targets were evaluated using several open access software programs (e.g., Targetscan, PicTar, miRanda, miRDB). […] In the first screening, the suppression of ADAM10, CXCL16 and NAMPT protein level was analyzed in NALM-6 cells transiently expressing miR-451 mimic (SEQ ID NO: 2) and in cells transiently expressing scrambled-miR (universal sequence; negative control) by Western blot as described in Materials and Methods. […]

Nalm-6 cells [2] = test: Tumor growth of transfected Nalm-6 cells injected s.c. into NOD/SCID mice; format: in vivo
Excerpt: As described herein, decreased expression of miR-451 in comparison to a control level can serve as a prognostic factor for ALL relapse risk, as low expression of miR-451 at first diagnosis predicts worse outcome. […] Scrambled miRNA-transfected cells served as negative control (Nalm-6/miR-NC). Quantitative reverse transcription PCR (RT-qPCR) was used to confirm miR-451 expression in the transfected cells.
To further study the putative tumor-suppressive function of hsa-miR-451 in vivo, 10^7 viable Nalm-6 cells either untransfected, transfected in vitro with miR-451 mimic, or transfected with scrambled miR (control), were injected sub-cutaneously (s.c.) into the right flanks of 6-week-old female NOD/SCID mice. […] On day 26, the median tumor volume in the scrambled control mice and the miR-451 mimic mice were 204.69 mm^3 (SE=63.96) and 23.32 mm^3 (SE=13.12), respectively (p=0.019). At the end of the experiment, mice were sacrificed, and the tumors were weighted. The median tumor weight in the scrambled control mice and the miR-451 mimic mice were 0.0966 gr (SE=0.040) and 0.0159 gr (SE=0.0009), respectively (p=0.046) (FIG. 4C).

NAMPT = NAMPT expression by FACS in transfected Nalm-6 cells; format: cell-based
Description: One to two million NALM-6 transfected cells were collected 48 hours after transfection and fixed using 500 μl fixation and permeabilization buffer prior to immunofluorescent staining of intracellular proteins (e.g., BD Phosflow™ Fix Buffer I (BD Biosciences, San Jose, Calif., USA)) for 15 minutes. Then, pellets were washed twice using PBS and resuspended in 500 μl methanol. Samples were incubated for 2 hours in −20° C. For staining, pellets were washed with PBS and resuspended in 10 ml BD™ Cell Wash buffer (BD Biosciences, San Jose, Calif., USA) containing 2% FCS. The cells were stained for NAMPT using anti-NAMPT antibody (Ab) (1:1000) (R&D Systems®, MN, USA). […] The cells were sorted on flow cytometer (Calibur™ flow cytometer, Becton Dickinson, Le Pont-De-Claix, France) and analyzed using BD CellQuest™ Pro software.
Using open access software programs (TargetScan and miRanda), NAMPT was identified as a predicted target of miR-451. […] NAMPT expression was measured by FACS analysis using a specific NAMPT antibody.
In order to assess a possible association or correlation between miR-451 expression levels and sensitivity to in-vivo treatment of ALL with a NAMPT inhibitor, the effect of the NAMPT inhibitor FK866 was assessed in the presence of elevated levels or lowered levels of miR-451 in ALL xenograft mouse model. […] Tumors volume was measured daily.

Question: “miR-451 mimic: a dsmiR-451 designed to copy or mimic the functionality of mature endogenous miR-451 upon transfection (AAACCGUUACCAUUACUGAGUU; double-stranded mimic, further chemistry not given here; listed as Homo sapiens)” was tested. Which effect on viability (Nalm-6 cells [1]) did it give?
Answer: The effect on viability was “No effect”.

Question: What about the “ADAM10 protein level compared to scrambled-miR” value (ADAM10) of the same substance?
Answer: Its value is “only NAMPT protein expression levels were reduced”.

Question: And the “tumor growth vs scrambled miR control cells” value (Nalm-6 cells [2]; after 20 days)?
Answer: Its value is “significantly decreased tumor growth”.

Question: And the median tumor volume (Nalm-6 cells [2]; day 26, 10^7 transfected Nalm-6 cells s.c., female NOD/SCID mice)?
Answer: Its median tumor volume is 23.32 mm^3.

Question: And the median tumor weight (Nalm-6 cells [2]; end of the experiment)?
Answer: Its median tumor weight is 0.0159 gr.

Question: And the “NAMPT protein expression decreased by” value (NAMPT)?
Answer: The value was 46%.
